Results: the supplement of paper PMC7287046

Assays:
Details in all cases: exposure time: 72 h
[1] = test system: SF539; assay: HSA synergy score (Combenefit); higher = more synergy
Description: (§1)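 The same 6x6 dose matrices of drug pairs on glioma cell lines (72 h, CellTiter-Glo viability normalised to DMSO, triplicate) were scored with Combenefit. The Loewe, Bliss and HSA synergy scores are given; paper thresholds are Loewe 7.8 and Bliss 2.5.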

[2] = test system: U251; assay: as above
Description: as §1

[3] = test system: U118; assay: as above
Description: as §1

[4] = test system: AM-38; assay: as above
Description: as §1

[5] = test system: U87; assay: as above
Description: as §1

[6] = test system: KNS-42; assay: as above
Description: as §1

[7] = test system: SNB75; assay: as above
Description: as §1

[8] = test system: SF268; assay: as above
Description: as §1

[9] = test system: T98G; assay: as above
Description: as §1

[10] = test system: SF539; assay: Bliss synergy score (Combenefit); higher = more synergy; extreme values may be limits of the assay
Description: as §1

[11] = test system: U251; assay: as above
Description: as §1

[12] = test system: U118; assay: as above
Description: as §1

[13] = test system: AM-38; assay: as above
Description: as §1

[14] = test system: U87; assay: as above
Description: as §1

[15] = test system: KNS-42; assay: as above
Description: as §1

[16] = test system: SNB75; assay: as above
Description: as §1

[17] = test system: SF268; assay: as above
Description: as §1

[18] = test system: T98G; assay: as above
Description: as §1

[19] = test system: SF539; assay: Loewe synergy score (Combenefit); higher = more synergy; extreme values may be limits of the assay
Description: as §1

[20] = test system: U251; assay: as above
Description: as §1

[21] = test system: U118; assay: as above
Description: as §1

[22] = test system: AM-38; assay: as above
Description: as §1

[23] = test system: U87; assay: as above
Description: as §1

[24] = test system: KNS-42; assay: as above
Description: as §1

[25] = test system: SNB75; assay: as above
Description: as §1

[26] = test system: SF268; assay: as above
Description: as §1

[27] = test system: T98G; assay: as above
Description: as §1

[28] = test system: KNS42; assay: Chou-Talalay combination index (dimensionless); higher = less synergy (more antagonism)
Description: (§2)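 Glioma cell lines were treated for 72 h with a 6x6 matrix of two drugs, each in twofold dilutions with the top dose at the single-drug IC50. Viability was read by CellTiter-Glo and normalised to DMSO controls, in triplicate. The Chou-Talalay combination index was computed by the median effect principle; CI < 0.8 means synergy.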

[29] = test system: SF539; assay: as above
Description: as §2

[30] = test system: U251; assay: as above
Description: as §2

[31] = test system: AM38; assay: as above
Description: as §2

[32] = test system: U118; assay: as above
Description: as §2

[33] = test system: T98; assay: as above
Description: as §2

[34] = test system: U87; assay: as above
Description: as §2

[35] = test system: SNB75; assay: as above
Description: as §2

[36] = test system: SF268; assay: as above
Description: as §2

CO[C@H]1C[C@@H]2CC[C@@H](C)[C@@](O)(O2)C(=O)C(=O)N2CCCC[C@H]2C(=O)O[C@H]([C@H](C)C[C@@H]2CC[C@@H](O)[C@H](OC)C2)CC(=O)[C@H](C)/C=C(\C)[C@@H](O)[C@@H](OC)C(=O)[C@H](C)C[C@H](C)/C=C/C=C/C=C/1C [Rapamycin] + C=CCc1cccc(/C=N/NC(=O)CN2CCN(Cc3ccccc3)CC2)c1O [PAC-1]
HSA synergy score [1]: 4.8
HSA synergy score [2]: 0.552
HSA synergy score [3]: 4.75
HSA synergy score [4]: 0.274
HSA synergy score [5]: 0.71
HSA synergy score [6]: 14.1
HSA synergy score [7]: 8.87
HSA synergy score [8]: 5.88
HSA synergy score [9]: 1.1
Bliss synergy score [10]: 0.0748
Bliss synergy score [11]: 0.334
Bliss synergy score [12]: 0
Bliss synergy score [13]: 0
Bliss synergy score [14]: 0
Bliss synergy score [15]: 5.47
Bliss synergy score [16]: 0.0756
Bliss synergy score [17]: 0
Bliss synergy score [18]: 0
Loewe synergy score [19]: 3.72
Loewe synergy score [20]: 0.233
Loewe synergy score [21]: 3.97
Loewe synergy score [22]: 0.274
Loewe synergy score [23]: 0
Loewe synergy score [24]: 13.7
Loewe synergy score [25]: 7.67
Loewe synergy score [26]: 5.45
Loewe synergy score [27]: 0
Chou-Talalay combination index [28]: 0.607
Chou-Talalay combination index [29]: 0.975
Chou-Talalay combination index [30]: 0.927
Chou-Talalay combination index [31]: 1.24
Chou-Talalay combination index [32]: 1.03
Chou-Talalay combination index [33]: 1.13
Chou-Talalay combination index [34]: 1.01
Chou-Talalay combination index [35]: 0.925
Chou-Talalay combination index [36]: 0.962

Nc1ccn([C@@H]2O[C@H](CO)[C@@H](O)C2(F)F)c(=O)n1 [Gemcitabine] + CO[C@H]1C[C@@H]2CC[C@@H](C)[C@@](O)(O2)C(=O)C(=O)N2CCCC[C@H]2C(=O)O[C@H]([C@H](C)C[C@@H]2CC[C@@H](O)[C@H](OC)C2)CC(=O)[C@H](C)/C=C(\C)[C@@H](O)[C@@H](OC)C(=O)[C@H](C)C[C@H](C)/C=C/C=C/C=C/1C [Rapamycin]
HSA synergy score [1]: 18.2
HSA synergy score [2]: 4.63
HSA synergy score [3]: 23
HSA synergy score [4]: 0.0506
HSA synergy score [5]: 10
HSA synergy score [6]: 0.15
HSA synergy score [7]: 4.52
HSA synergy score [8]: 18.5
HSA synergy score [9]: 1.52
Bliss synergy score [10]: 4.47
Bliss synergy score [11]: 0.62
Bliss synergy score [12]: 2.62
Bliss synergy score [13]: 0.0506
Bliss synergy score [14]: 1.89
Bliss synergy score [15]: 0
Bliss synergy score [16]: 1.41
Bliss synergy score [17]: 6.03
Bliss synergy score [18]: 0
Loewe synergy score [19]: 16.9
Loewe synergy score [20]: 4.63
Loewe synergy score [21]: 22
Loewe synergy score [22]: 0.0506
Loewe synergy score [23]: 10
Loewe synergy score [24]: 0.0119
Loewe synergy score [25]: 4.52
Loewe synergy score [26]: 18.1
Loewe synergy score [27]: 1.27
Chou-Talalay combination index [28]: 1.04
Chou-Talalay combination index [29]: 0.669
Chou-Talalay combination index [30]: 0.677
Chou-Talalay combination index [31]: 0.998
Chou-Talalay combination index [32]: 0.654
Chou-Talalay combination index [33]: 1.13
Chou-Talalay combination index [34]: 0.683
Chou-Talalay combination index [35]: 0.95
Chou-Talalay combination index [36]: 0.786

CC(=O)O[C@@]12CO[C@@H]1C[C@H](O)[C@@]1(C)C(=O)[C@H](O)C3=C(C)[C@@H](OC(=O)[C@H](O)[C@@H](NC(=O)OC(C)(C)C)c4ccccc4)C[C@@](O)([C@@H](OC(=O)c4ccccc4)[C@H]21)C3(C)C [Docetaxel] + C#Cc1cccc(Nc2ncnc3cc(OCCOC)c(OCCOC)cc23)c1 [Erlotinib]
HSA synergy score [1]: 2.49
HSA synergy score [2]: 5.05
HSA synergy score [3]: 6.82
HSA synergy score [4]: 0
HSA synergy score [5]: 3.14
HSA synergy score [6]: 7.84
HSA synergy score [7]: 5.52
HSA synergy score [8]: 9.27
HSA synergy score [9]: 9.15
Bliss synergy score [10]: 0
Bliss synergy score [11]: 2.48
Bliss synergy score [12]: 0.59
Bliss synergy score [13]: 0
Bliss synergy score [14]: 0
Bliss synergy score [15]: 2.96
Bliss synergy score [16]: 4.1
Bliss synergy score [17]: 0.0561
Bliss synergy score [18]: 0.0594
Loewe synergy score [19]: 1.4
Loewe synergy score [20]: 5.05
Loewe synergy score [21]: 0.504
Loewe synergy score [22]: 0
Loewe synergy score [23]: 0.182
Loewe synergy score [24]: 7.84
Loewe synergy score [25]: 5.52
Loewe synergy score [26]: 5.33
Loewe synergy score [27]: 8.54
Chou-Talalay combination index [28]: 0.834
Chou-Talalay combination index [29]: 0.998
Chou-Talalay combination index [30]: 0.678
Chou-Talalay combination index [31]: 0.962
Chou-Talalay combination index [32]: 0.956
Chou-Talalay combination index [33]: 0.713
Chou-Talalay combination index [34]: 1.1
Chou-Talalay combination index [35]: 0.781
Chou-Talalay combination index [36]: 0.934

CO[C@H]1C[C@@H]2CC[C@@H](C)[C@@](O)(O2)C(=O)C(=O)N2CCCC[C@H]2C(=O)O[C@H]([C@H](C)C[C@@H]2CC[C@@H](O)[C@H](OC)C2)CC(=O)[C@H](C)/C=C(\C)[C@@H](O)[C@@H](OC)C(=O)[C@H](C)C[C@H](C)/C=C/C=C/C=C/1C [Rapamycin] + CCOc1nc(NC(=O)Cc2cc(OC)ccc2OC)cc(N)c1C#N [JNK inhibitor VIII]
HSA synergy score [1]: 0.625
HSA synergy score [2]: 8.47
HSA synergy score [3]: 2.12
HSA synergy score [4]: 3.73
HSA synergy score [5]: 5.37
HSA synergy score [6]: 6.4
HSA synergy score [7]: 19.9
HSA synergy score [8]: 0.46
HSA synergy score [9]: 0.183
Bliss synergy score [10]: 0
Bliss synergy score [11]: 6.55
Bliss synergy score [12]: 0
Bliss synergy score [13]: 0
Bliss synergy score [14]: 4.63
Bliss synergy score [15]: 1.98
Bliss synergy score [16]: 0.0362
Bliss synergy score [17]: 0
Bliss synergy score [18]: 0.183
Loewe synergy score [19]: 0.362
Loewe synergy score [20]: 5.59
Loewe synergy score [21]: 1.75
Loewe synergy score [22]: 3.73
Loewe synergy score [23]: 0.748
Loewe synergy score [24]: 6.4
Loewe synergy score [25]: 16.7
Loewe synergy score [26]: 0.192
Loewe synergy score [27]: 0.183
Chou-Talalay combination index [28]: 0.843
Chou-Talalay combination index [29]: 1.09
Chou-Talalay combination index [30]: 0.74
Chou-Talalay combination index [31]: 0.906
Chou-Talalay combination index [32]: 1.1
Chou-Talalay combination index [33]: 0.917
Chou-Talalay combination index [34]: 0.776
Chou-Talalay combination index [35]: 0.706
Chou-Talalay combination index [36]: 1.09
